Results from ChEMBL document CHEMBL4340570, “Design, synthesis, and biological evaluation of novel 4-oxobenzo[d]1,2,3-triazin-benzylpyridinum derivatives as potent anti-Alzheimer agents” (Bioorg Med Chem, 2019).
Calls of active or inactive are those of the source. The rule behind the calls is not given here.

Key:
[1] = molecular target: T1, Acetylcholinesterase (Electrophorus electricus, UniProt O42275); test: Inhibition of electric eel AChE pre-incubated for 5 mins before acetylthiocholine iodide substrate addition and measured after 15 mins by Ellman's method
T1 sequence (O42275 whole entry): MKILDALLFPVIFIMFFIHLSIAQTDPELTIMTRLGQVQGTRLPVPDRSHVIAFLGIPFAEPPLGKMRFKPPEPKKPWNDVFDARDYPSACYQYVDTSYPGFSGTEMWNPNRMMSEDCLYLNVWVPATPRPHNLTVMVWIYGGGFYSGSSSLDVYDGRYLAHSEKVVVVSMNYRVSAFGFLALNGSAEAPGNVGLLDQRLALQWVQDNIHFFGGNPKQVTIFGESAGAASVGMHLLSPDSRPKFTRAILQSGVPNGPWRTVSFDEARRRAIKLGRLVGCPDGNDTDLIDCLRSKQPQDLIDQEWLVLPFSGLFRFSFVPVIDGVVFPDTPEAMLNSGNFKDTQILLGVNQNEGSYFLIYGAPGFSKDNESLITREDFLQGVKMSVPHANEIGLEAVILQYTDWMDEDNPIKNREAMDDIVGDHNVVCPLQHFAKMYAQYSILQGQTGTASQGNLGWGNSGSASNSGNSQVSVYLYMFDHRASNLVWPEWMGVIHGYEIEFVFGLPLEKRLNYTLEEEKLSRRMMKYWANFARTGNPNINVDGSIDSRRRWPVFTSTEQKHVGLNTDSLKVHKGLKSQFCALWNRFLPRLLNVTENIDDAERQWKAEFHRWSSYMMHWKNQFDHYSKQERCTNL

[2] = molecular target: Cholinesterase (Equus caballus, UniProt P81908); test: Inhibition of equine serum BuChE pre-incubated for 5 mins before butyrylthiocholine iodide substrate addition and measured after 15 mins by Ellman's method
Sequence of Cholinesterase (P81908 whole entry): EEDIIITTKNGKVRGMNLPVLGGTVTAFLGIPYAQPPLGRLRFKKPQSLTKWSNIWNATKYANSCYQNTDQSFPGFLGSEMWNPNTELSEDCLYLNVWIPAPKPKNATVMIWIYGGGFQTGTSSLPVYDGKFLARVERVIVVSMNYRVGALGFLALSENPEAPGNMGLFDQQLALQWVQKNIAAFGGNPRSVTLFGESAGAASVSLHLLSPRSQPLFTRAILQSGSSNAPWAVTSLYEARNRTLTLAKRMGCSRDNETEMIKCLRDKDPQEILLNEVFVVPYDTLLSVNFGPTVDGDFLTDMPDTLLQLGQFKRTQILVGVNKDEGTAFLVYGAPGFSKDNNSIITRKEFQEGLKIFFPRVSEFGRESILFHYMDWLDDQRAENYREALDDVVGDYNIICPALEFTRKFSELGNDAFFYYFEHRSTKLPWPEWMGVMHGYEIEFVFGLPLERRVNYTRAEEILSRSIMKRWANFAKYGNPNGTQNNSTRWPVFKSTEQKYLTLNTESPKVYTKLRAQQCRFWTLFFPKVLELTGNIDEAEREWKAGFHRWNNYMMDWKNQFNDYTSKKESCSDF

[3] = tested on: PC-12; test: Neuroprotective activity in rat PC12 cells assessed as protection against H2O2-induced cytotoxicity at 10 uM pre-incubated for 3 hrs before H2O2 addition and measured after 12 hrs by MTT assay; type: functional, cell-based
[4] = tested on: PC-12; test: Neuroprotective activity in rat PC12 cells assessed as protection against H2O2-induced cytotoxicity at 1 uM pre-incubated for 3 hrs before H2O2 addition and measured after 12 hrs by MTT assay; type: functional, cell-based
[5] = tested on: PC-12; test: Neuroprotective activity in rat PC12 cells assessed as protection against H2O2-induced cytotoxicity at 100 uM pre-incubated for 3 hrs before H2O2 addition and measured after 12 hrs by MTT assay; type: functional, cell-based
[6] = molecular target: Beta-secretase 1 (Homo sapiens) (UniProt P56817); test: Inhibition of recombinant human BACE1 (1 to 460 residues) expressed in baculovirus-infected insect cells at 10 uM using Rh-EVNLDAEFK-quencher as substrate measured after 90 mins by FRET assay relative to control
Sequence of Beta-secretase 1 (Homo sapiens) (P56817 whole entry, the tested form may be a part): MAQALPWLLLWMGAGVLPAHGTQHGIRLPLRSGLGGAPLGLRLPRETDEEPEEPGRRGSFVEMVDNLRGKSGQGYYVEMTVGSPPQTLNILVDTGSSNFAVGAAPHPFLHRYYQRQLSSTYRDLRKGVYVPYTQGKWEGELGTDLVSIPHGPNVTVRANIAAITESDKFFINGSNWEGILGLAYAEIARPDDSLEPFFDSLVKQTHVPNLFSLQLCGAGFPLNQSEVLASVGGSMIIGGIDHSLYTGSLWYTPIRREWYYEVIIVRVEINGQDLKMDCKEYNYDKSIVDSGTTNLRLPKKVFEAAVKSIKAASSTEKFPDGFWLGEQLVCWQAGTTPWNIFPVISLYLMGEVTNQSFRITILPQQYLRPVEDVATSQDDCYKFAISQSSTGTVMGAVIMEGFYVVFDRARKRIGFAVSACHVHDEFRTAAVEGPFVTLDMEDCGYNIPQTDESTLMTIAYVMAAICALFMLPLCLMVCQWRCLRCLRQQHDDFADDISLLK

[7] = molecular target: T1, Acetylcholinesterase; test: Mixed type inhibition of electric eel AChE pre-incubated for 5 mins before acetylthiocholine iodide substrate addition and measured after 15 mins by modified Ellman's method baaed Lineweaver-Burk plot analysis
[8] = molecular target: Beta-secretase 1 (Homo sapiens) (UniProt P56817); test: Inhibition of recombinant human BACE1 (1 to 460 residues) expressed in baculovirus-infected insect cells at 50 uM using Rh-EVNLDAEFK-quencher as substrate measured after 90 mins by FRET assay relative to control

Row | Structure (SMILES) | IC50 [1] [nM] | IC50 [2] [nM] | also measured
1 | O=c1c2ccccc2nnn1Cc1ccc[n+](Cc2ccc([N+](=O)[O-])cc2)c1 | 160 | 17200 | –
2 | O=c1c2ccccc2nnn1Cc1ccc[n+](Cc2c(Cl)cccc2Cl)c1 | 730 | 21600 | –
3 | O=c1c(O)c(-c2ccc(O)c(O)c2)oc2cc(O)cc(O)c12 | – | – | Activity [3]: Active
4 | O=c1c2ccccc2nnn1Cc1ccc[n+](Cc2ccccc2F)c1 | 290 | 23900 | –
5 | Cc1ccccc1C[n+]1cccc(Cn2nnc3ccccc3c2=O)c1 | 200 | 13700 | –
6 | O=c1c2ccccc2nnn1Cc1cc[n+](Cc2ccccc2[N+](=O)[O-])cc1 | 1300 | 18200 | –
7 | O=c1c2ccccc2nnn1Cc1cc[n+](Cc2ccccc2Cl)cc1 | 1370 | 55000 | –
8 | O=c1c2ccccc2nnn1Cc1ccc[n+](Cc2ccc(F)cc2)c1 | 150 | 23800 | Activity [4]: Active
9 | O=c1c2ccccc2nnn1Cc1ccc[n+](Cc2cccc(F)c2)c1 | 170 | 27800 | –
10 | O=c1c2ccccc2nnn1Cc1cc[n+](Cc2ccc(Br)cc2)cc1 | 1180 | 51800 | –
11 | O=c1c2ccccc2nnn1Cc1ccc[n+](Cc2cccc(Br)c2)c1 | 300 | 14700 | –
12 | O=c1c2ccccc2nnn1Cc1cc[n+](Cc2ccccc2)cc1 | 1340 | 75200 | –
13 | O=c1c2ccccc2nnn1Cc1ccc[n+](Cc2ccccc2Br)c1 | 150 | 16800 | Activity [3]: Active; Activity [4]: Active; Activity [5]: Active
14 | O=c1c2ccccc2nnn1Cc1cc[n+](Cc2ccccc2F)cc1 | 1680 | 64600 | –
15 | O=c1c2ccccc2nnn1Cc1ccc[n+](Cc2ccccc2)c1 | 170 | 31200 | –
16 | O=c1c2ccccc2nnn1Cc1ccc[n+](Cc2ccc(Br)cc2)c1 | 840 | 5800 | –
17 | O=c1c2ccccc2nnn1Cc1ccc[n+](Cc2ccccc2[N+](=O)[O-])c1 | 100 | 17500 | inhibition [6]: 37%; Ki [7]: 17 nM; Activity [5]: Active; inhibition [8]: 61.2%
18 | O=c1c2ccccc2nnn1Cc1cc[n+](Cc2ccc(F)cc2)cc1 | 1640 | 70700 | –
